Measurements taken from the supplement of paper PMC10307832.

Key:
Assay in all cases: relative viability (nuclei count vs DMSO), 5 days (fraction); higher = more cells survive
[1] = compound: COC1=C(C=C(C=C1)C2=CC3=NC=CN3C(=N2)NC4=C(C=CC=N4)C(=O)N)OC [BAY61-3606] + O=C(c1cc(Cc2n[nH]c(=O)c3ccccc23)ccc1F)N1CCN(C(=O)C2CC2)CC1 [Olaparib] (partner 8 µM)
Outline: (§1)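 Lung cancer cell lines, seeded in 1536-well plates, were treated the following day by pin tool with a single drug or with five library-drug doses (not always all listed) in √10 steps on top of a fixed anchor-drug dose. Cells were fixed and nuclei stained in one step after 5 days, and nuclei were counted. Relative viability is the nuclei count for treated wells divided by that for vehicle wells, reported as medians of duplicate plates.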

[2] = compound: COC1=C(C=C(C=C1)C2=CC3=NC=CN3C(=N2)NC4=C(C=CC=N4)C(=O)N)OC [BAY61-3606] + Nc1nc2[nH]cc(CCc3ccc(C(=O)N[C@@H](CCC(=O)O)C(=O)O)cc3)c2c(=O)[nH]1 [Pemetrexed] (partner 0.2 µM)
Outline: as §1

[3] = compound: COc1cccc2c1C(=O)c1c(O)c3c(c(O)c1C2=O)C[C@@](O)(C(=O)CO)C[C@@H]3O[C@H]1C[C@H](N)[C@H](O)[C@H](C)O1 [Doxorubicin] + O=C(CCCCCCC(=O)Nc1ccccc1)NO [Vorinostat] (partner 1 µM)
Outline: as §1

[4] = compound: COc1cccc2c1C(=O)c1c(O)c3c(c(O)c1C2=O)C[C@@](O)(C(=O)CO)C[C@@H]3O[C@H]1C[C@H](N)[C@H](O)[C@H](C)O1 [Doxorubicin] + CS(=O)(=O)N1CCN(Cc2cc3nc(-c4cccc5[nH]ncc45)nc(N4CCOCC4)c3s2)CC1 [Pictilisib] (partner 1 µM)
Outline: as §1

LCLC-103H
relative viability ([1]; first compound 0.02 µM): 0.764
relative viability ([1]; first compound 0.06325 µM): 0.786
relative viability ([1]; first compound 0.2 µM): 0.847
relative viability ([1]; first compound 0.6325 µM): 0.758
relative viability ([1]; first compound 2 µM): 0.772
relative viability ([2]; first compound 0.02 µM): 0.437
relative viability ([2]; first compound 0.06325 µM): 0.441
relative viability ([2]; first compound 0.2 µM): 0.457
relative viability ([2]; first compound 0.6325 µM): 0.462
relative viability ([2]; first compound 2 µM): 0.446
relative viability ([3]; first compound 0.001 µM): 0.775
relative viability ([3]; first compound 0.003162 µM): 0.823
relative viability ([3]; first compound 0.01 µM): 0.779
relative viability ([3]; first compound 0.03162 µM): 0.811
relative viability ([3]; first compound 0.1 µM): 0.902
relative viability ([4]; first compound 0.001 µM): 0.618
relative viability ([4]; first compound 0.003162 µM): 0.677
relative viability ([4]; first compound 0.01 µM): 0.569
relative viability ([4]; first compound 0.03162 µM): 0.588
relative viability ([4]; first compound 0.1 µM): 0.578

LK-2
relative viability ([1]; first compound 0.02 µM): 0.694
relative viability ([1]; first compound 0.06325 µM): 0.598
relative viability ([1]; first compound 0.2 µM): 0.731
relative viability ([1]; first compound 0.6325 µM): 0.846
relative viability ([1]; first compound 2 µM): 0.736
relative viability ([2]; first compound 0.02 µM): 0.245
relative viability ([2]; first compound 0.06325 µM): 0.232
relative viability ([2]; first compound 0.2 µM): 0.384
relative viability ([2]; first compound 0.6325 µM): 0.288
relative viability ([2]; first compound 2 µM): 0.252
relative viability ([3]; first compound 0.001 µM): 0.318
relative viability ([3]; first compound 0.003162 µM): 0.311
relative viability ([3]; first compound 0.01 µM): 0.266
relative viability ([3]; first compound 0.03162 µM): 0.23
relative viability ([3]; first compound 0.1 µM): 0.307
relative viability ([4]; first compound 0.001 µM): 0.498
relative viability ([4]; first compound 0.003162 µM): 0.457
relative viability ([4]; first compound 0.01 µM): 0.534
relative viability ([4]; first compound 0.03162 µM): 0.498
relative viability ([4]; first compound 0.1 µM): 0.442

LOU-NH91
relative viability ([1]; first compound 0.02 µM): 0.944
relative viability ([1]; first compound 0.06325 µM): 0.922
relative viability ([1]; first compound 0.2 µM): 0.903
relative viability ([1]; first compound 0.6325 µM): 0.944
relative viability ([1]; first compound 2 µM): 0.728
relative viability ([2]; first compound 0.02 µM): 0.402
relative viability ([2]; first compound 0.06325 µM): 0.385
relative viability ([2]; first compound 0.2 µM): 0.413
relative viability ([2]; first compound 0.6325 µM): 0.38
relative viability ([2]; first compound 2 µM): 0.413
relative viability ([3]; first compound 0.003162 µM): 0.892
relative viability ([3]; first compound 0.01 µM): 0.853
relative viability ([3]; first compound 0.03162 µM): 0.615
relative viability ([3]; first compound 0.1 µM): 0.331
relative viability ([4]; first compound 0.003162 µM): 0.516
relative viability ([4]; first compound 0.01 µM): 0.564
relative viability ([4]; first compound 0.03162 µM): 0.465
relative viability ([4]; first compound 0.1 µM): 0.419

NCI-H522
relative viability ([1]; first compound 0.02 µM): 0.768
relative viability ([1]; first compound 0.06325 µM): 0.618
relative viability ([1]; first compound 0.2 µM): 0.644
relative viability ([1]; first compound 0.6325 µM): 0.654
relative viability ([1]; first compound 2 µM): 0.53
relative viability ([2]; first compound 0.02 µM): 1.15
relative viability ([2]; first compound 0.06325 µM): 0.966
relative viability ([2]; first compound 0.2 µM): 1.04
relative viability ([2]; first compound 0.6325 µM): 0.907
relative viability ([2]; first compound 2 µM): 0.817
relative viability ([3]; first compound 0.001 µM): 0.869
relative viability ([3]; first compound 0.003162 µM): 0.93
relative viability ([3]; first compound 0.01 µM): 0.716
relative viability ([3]; first compound 0.03162 µM): 0.786
relative viability ([3]; first compound 0.1 µM): 0.878

NCI-H727
relative viability ([1]; first compound 0.02 µM): 0.586
relative viability ([1]; first compound 0.06325 µM): 0.643
relative viability ([1]; first compound 0.2 µM): 0.752
relative viability ([1]; first compound 0.6325 µM): 0.68
relative viability ([1]; first compound 2 µM): 0.627
relative viability ([3]; first compound 0.001 µM): 1.33
relative viability ([3]; first compound 0.003162 µM): 1.09
relative viability ([3]; first compound 0.03162 µM): 1.13
relative viability ([3]; first compound 0.1 µM): 1.19
relative viability ([4]; first compound 0.001 µM): 0.334
relative viability ([4]; first compound 0.003162 µM): 0.342
relative viability ([4]; first compound 0.01 µM): 0.353
relative viability ([4]; first compound 0.03162 µM): 0.391
relative viability ([4]; first compound 0.1 µM): 0.356

NCI-H1299
relative viability ([1]; first compound 0.02 µM): 1
relative viability ([1]; first compound 0.06325 µM): 0.987
relative viability ([1]; first compound 0.2 µM): 0.983
relative viability ([1]; first compound 0.6325 µM): 0.967
relative viability ([1]; first compound 2 µM): 0.936
relative viability ([4]; first compound 0.001 µM): 0.799
relative viability ([4]; first compound 0.003162 µM): 0.762
relative viability ([4]; first compound 0.01 µM): 0.699
relative viability ([4]; first compound 0.03162 µM): 0.273
relative viability ([4]; first compound 0.1 µM): 0.196

NCI-H1563
relative viability ([2]; first compound 0.02 µM): 0.894
relative viability ([2]; first compound 0.06325 µM): 0.745
relative viability ([2]; first compound 0.2 µM): 0.669
relative viability ([2]; first compound 0.6325 µM): 0.84
relative viability ([2]; first compound 2 µM): 0.712
relative viability ([4]; first compound 0.001 µM): 0.585
relative viability ([4]; first compound 0.003162 µM): 0.602
relative viability ([4]; first compound 0.01 µM): 0.62
relative viability ([4]; first compound 0.03162 µM): 0.541
relative viability ([4]; first compound 0.1 µM): 0.532

NCI-H1648
relative viability ([1]; first compound 0.02 µM): 0.766
relative viability ([1]; first compound 0.06325 µM): 0.982
relative viability ([1]; first compound 0.2 µM): 0.736
relative viability ([1]; first compound 2 µM): 0.765
relative viability ([2]; first compound 0.02 µM): 0.803
relative viability ([2]; first compound 0.06325 µM): 0.622
relative viability ([2]; first compound 0.2 µM): 0.79
relative viability ([2]; first compound 2 µM): 0.874
relative viability ([3]; first compound 0.001 µM): 0.421
relative viability ([3]; first compound 0.003162 µM): 0.376
relative viability ([3]; first compound 0.01 µM): 0.468
relative viability ([3]; first compound 0.03162 µM): 0.285
relative viability ([3]; first compound 0.1 µM): 0.467

NCI-H1703
relative viability ([1]; first compound 0.02 µM): 0.626
relative viability ([1]; first compound 0.06325 µM): 0.383
relative viability ([1]; first compound 0.2 µM): 0.448
relative viability ([1]; first compound 0.6325 µM): 0.541
relative viability ([1]; first compound 2 µM): 0.276
relative viability ([4]; first compound 0.001 µM): 0.258
relative viability ([4]; first compound 0.003162 µM): 0.227
relative viability ([4]; first compound 0.01 µM): 0.189
relative viability ([4]; first compound 0.03162 µM): 0.177
relative viability ([4]; first compound 0.1 µM): 0.136

NCI-H1792
relative viability ([1]; first compound 0.02 µM): 0.66
relative viability ([1]; first compound 0.06325 µM): 0.463
relative viability ([1]; first compound 0.2 µM): 0.294
relative viability ([1]; first compound 0.6325 µM): 0.286
relative viability ([1]; first compound 2 µM): 0.282
relative viability ([2]; first compound 0.02 µM): 1.07
relative viability ([2]; first compound 0.06325 µM): 1.09
relative viability ([2]; first compound 0.2 µM): 0.852
relative viability ([2]; first compound 0.6325 µM): 0.771
relative viability ([2]; first compound 2 µM): 0.614
relative viability ([4]; first compound 0.001 µM): 0.325
relative viability ([4]; first compound 0.003162 µM): 0.287
relative viability ([4]; first compound 0.01 µM): 0.309
relative viability ([4]; first compound 0.03162 µM): 0.209
relative viability ([4]; first compound 0.1 µM): 0.251

NCI-H2342
relative viability ([1]; first compound 0.02 µM): 0.352
relative viability ([1]; first compound 0.06325 µM): 0.406
relative viability ([1]; first compound 0.2 µM): 0.399
relative viability ([1]; first compound 0.6325 µM): 0.495
relative viability ([1]; first compound 2 µM): 0.432
relative viability ([2]; first compound 0.02 µM): 0.748
relative viability ([2]; first compound 0.06325 µM): 0.774
relative viability ([2]; first compound 0.2 µM): 0.716
relative viability ([2]; first compound 0.6325 µM): 0.825
relative viability ([2]; first compound 2 µM): 0.811
relative viability ([3]; first compound 0.001 µM): 0.757
relative viability ([3]; first compound 0.003162 µM): 0.845
relative viability ([3]; first compound 0.01 µM): 0.692
relative viability ([3]; first compound 0.03162 µM): 0.535
relative viability ([3]; first compound 0.1 µM): 0.696

SW 900
relative viability ([1]; first compound 0.02 µM): 0.881
relative viability ([1]; first compound 0.6325 µM): 0.856
relative viability ([1]; first compound 2 µM): 0.573
relative viability ([2]; first compound 0.02 µM): 0.473
relative viability ([2]; first compound 0.6325 µM): 0.465
relative viability ([2]; first compound 2 µM): 0.358
relative viability ([3]; first compound 0.003162 µM): 0.452
relative viability ([3]; first compound 0.01 µM): 0.394
relative viability ([3]; first compound 0.03162 µM): 0.346
relative viability ([3]; first compound 0.1 µM): 0.26
